Measured values taken from US9198855B2, “Veterinary dermatologic composition” (Dermaconcept JMC, priority 2001, dated 2015).
≈ marks a conversion by molar mass, not a printed value.

Columns and labels:
[1] = tested on: Candida albicans; details: inflammated, depilated guinea pig skin; cited from earlier work
[2] = tested on: Staphylococcus aureus; details: inflammated, depilated guinea pig skin; cited from earlier work
[3] = tested on: Staphylococcus Intermedius; test: Multiplication of Staphylococcus Intermedius cultures, doses 0-100 ppm in usual culture environment without solubilising agent; assay type: cell-based; details: for concentration completely inhibiting multiplication of Staphylococcus Intermedius cultures: complete inhibition; for concentration partly inhibiting multiplication of Staphylococcus Intermedius cultures: partial inhibition
Procedure: (§1) The minimum inhibitory concentration in case of Malassezia pachyadermatis was 25 ppm. Experiments were carried out using doses of 0, 5, 10, 25, 50 and 100 ppm of phytosphingosin and its hydrochloric acid salt on Staphylococcus Intermedius in usual culture environment without solubilising agent.

[4] = tested on: Malassezia pachyadermatis; test: In-vitro mycological study, minimum inhibitory concentration; assay type: cell-based, Malassezia pachydermatis
Procedure: as §1
However the effect is not limited to cats and dogs but extends to other furry animals, such as horses, rabbits, […]

Compound | activity against Candida albicans [1] | activity against Staphylococcus aureus [2] | concentration completely inhibiting multiplication of Staphylococcus Intermedius cultures [3] | concentration partly inhibiting multiplication of Staphylococcus Intermedius cultures [3] | MIC ([4]; Malassezia pachyadermatis) | anti-fungal action against Malassezia pachydermatis ([4]; in-vitro mycological studies)
CCCCCCCCCCCCCCC[C@@H](O)[C@@H](N)CO [sphinganin] | effective | effective | – | – | – | –
CCCCCCCCCCCCCC[C@@H](O)[C@@H](O)[C@@H](N)CO.Cl [phytosphingosin hydrochloric acid salt, Phytosphingosin hydrochloric acid] | – | – | 10 ppm | 5 ppm | – | –
CCCCCCCCCCCCC/C=C/[C@@H](O)[C@@H](N)CO [Sphingosin, sphingosin] | little effect | little effect | – | – | – | –
CCCCCCCCCCCCCC[C@@H](O)[C@@H](O)[C@@H](N)CO [phytosphingosin] | – | – | 10 ppm | 5 ppm | 25 µg/mL (≈ 78.7 µM) | anti-fungal action
